Values of other authors in patent US12251467B2, “Vaginal hydrogel for delivery of therapeutics” (priority 2018, dated 2025).
Values after ≈ are worked out from the molar mass of the structure shown.

With `Cc1ncc([N+](=O)[O-])n1CCOC(=O)c1ccccc1` [metronidazole benzoate] as the compound, how does the solubility in water read?
The solubility in water was 0.1 mg/mL (≈ 363 µM).
